Assay results taken from the NIST ThermoML archive (doi:10.1021/je2003012).

Test: relative permittivity at various frequencies (dimensionless); wn = mass fraction of the nth substance listed
Conditions: Liquid, direct capacitance:P =

O=C=O [carbon dioxide] + CCO
Conditions | relative permittivity
304.9 K, 29800 kPa, w2 = 0.152 | 2.85
312.8 K, 8000 kPa, w2 = 0.212 | 2.8
312.8 K, 9300 kPa, w2 = 0.212 | 2.86
312.8 K, 11200 kPa, w2 = 0.212 | 2.94
312.8 K, 11500 kPa, w2 = 0.212 | 2.94
312.8 K, 14200 kPa, w2 = 0.212 | 3
312.8 K, 14300 kPa, w2 = 0.212 | 3.01
312.8 K, 14900 kPa, w2 = 0.212 | 3.03
312.8 K, 15800 kPa, w2 = 0.212 | 3.05
312.8 K, 17400 kPa, w2 = 0.212 | 3.11
312.8 K, 18000 kPa, w2 = 0.212 | 3.14
312.8 K, 20000 kPa, w2 = 0.212 | 3.17
312.8 K, 20600 kPa, w2 = 0.212 | 3.18
312.8 K, 22200 kPa, w2 = 0.212 | 3.22
312.8 K, 22800 kPa, w2 = 0.212 | 3.23
312.8 K, 23700 kPa, w2 = 0.212 | 3.25
312.8 K, 26300 kPa, w2 = 0.212 | 3.3
312.8 K, 28100 kPa, w2 = 0.212 | 3.32
312.8 K, 28400 kPa, w2 = 0.212 | 3.34
312.8 K, 30800 kPa, w2 = 0.212 | 3.37
313 K, 9700 kPa, w2 = 0.05 | 1.63
313 K, 9800 kPa, w2 = 0.05 | 1.64
313 K, 9900 kPa, w2 = 0.05 | 1.65
313 K, 11300 kPa, w2 = 0.05 | 1.7
313 K, 11700 kPa, w2 = 0.05 | 1.7
313 K, 11800 kPa, w2 = 0.05 | 1.7
313 K, 13200 kPa, w2 = 0.05 | 1.74
313 K, 13700 kPa, w2 = 0.05 | 1.74
313 K, 15100 kPa, w2 = 0.05 | 1.77
313 K, 15700 kPa, w2 = 0.05 | 1.78
313 K, 17400 kPa, w2 = 0.05 | 1.8
313 K, 17500 kPa, w2 = 0.05 | 1.8
313 K, 19200 kPa, w2 = 0.05 | 1.82
313 K, 20700 kPa, w2 = 0.05 | 1.83
313 K, 21600 kPa, w2 = 0.05 | 1.84
313 K, 23500 kPa, w2 = 0.05 | 1.86
313 K, 25300 kPa, w2 = 0.05 | 1.87
313 K, 25400 kPa, w2 = 0.05 | 1.87
313 K, 27400 kPa, w2 = 0.05 | 1.89
313 K, 30400 kPa, w2 = 0.05 | 1.91
313.1 K, 9700 kPa, w2 = 0.1 | 1.98
313.1 K, 10100 kPa, w2 = 0.152 | 2.37
313.1 K, 10200 kPa, w2 = 0.1 | 2
313.1 K, 10900 kPa, w2 = 0.152 | 2.39
313.1 K, 11000 kPa, w2 = 0.1 | 2.03
313.1 K, 11800 kPa, w2 = 0.152 | 2.42
313.1 K, 12000 kPa, w2 = 0.1 | 2.05
313.1 K, 12700 kPa, w2 = 0.1 | 2.08
313.1 K, 12700 kPa, w2 = 0.152 | 2.45
313.1 K, 13100 kPa, w2 = 0.1 | 2.09
313.1 K, 13700 kPa, w2 = 0.1 | 2.11
313.1 K, 13800 kPa, w2 = 0.152 | 2.47
313.1 K, 14600 kPa, w2 = 0.152 | 2.49
313.1 K, 14800 kPa, w2 = 0.1 | 2.13
313.1 K, 15700 kPa, w2 = 0.152 | 2.52
313.1 K, 15800 kPa, w2 = 0.1 | 2.15
313.1 K, 16800 kPa, w2 = 0.152 | 2.54
313.1 K, 17000 kPa, w2 = 0.1 | 2.17
313.1 K, 17700 kPa, w2 = 0.1 | 2.18
313.1 K, 17800 kPa, w2 = 0.152 | 2.56
313.1 K, 18800 kPa, w2 = 0.1 | 2.19
313.1 K, 18800 kPa, w2 = 0.152 | 2.58
313.1 K, 19500 kPa, w2 = 0.152 | 2.59
313.1 K, 19800 kPa, w2 = 0.1 | 2.2
313.1 K, 20800 kPa, w2 = 0.152 | 2.61
313.1 K, 21600 kPa, w2 = 0.152 | 2.62
313.1 K, 21900 kPa, w2 = 0.1 | 2.23
313.1 K, 22100 kPa, w2 = 0.1 | 2.23
313.1 K, 22400 kPa, w2 = 0.1 | 2.24
313.1 K, 22600 kPa, w2 = 0.152 | 2.63
313.1 K, 23500 kPa, w2 = 0.152 | 2.64
313.1 K, 24100 kPa, w2 = 0.1 | 2.26
313.1 K, 24400 kPa, w2 = 0.1 | 2.26
313.1 K, 24500 kPa, w2 = 0.152 | 2.66
313.1 K, 25500 kPa, w2 = 0.152 | 2.67
313.1 K, 25800 kPa, w2 = 0.1 | 2.28
313.1 K, 26400 kPa, w2 = 0.1 | 2.28
313.1 K, 26500 kPa, w2 = 0.152 | 2.68
313.1 K, 27500 kPa, w2 = 0.152 | 2.69
313.1 K, 27700 kPa, w2 = 0.1 | 2.3
313.1 K, 27800 kPa, w2 = 0.1 | 2.3
313.1 K, 27900 kPa, w2 = 0.152 | 2.7
313.1 K, 28300 kPa, w2 = 0.1 | 2.3
313.1 K, 28400 kPa, w2 = 0.152 | 2.71
313.1 K, 29300 kPa, w2 = 0.1 | 2.31
313.1 K, 29300 kPa, w2 = 0.152 | 2.72
313.1 K, 29500 kPa, w2 = 0.1 | 2.32
322.4 K, 10500 kPa, w2 = 0.1 | 1.86
